Experimental data reported in the NIST ThermoML archive (doi:10.1016/j.jct.2015.09.002).
Numbers after ± are expanded uncertainties.

How the values were obtained:
[1] = 93.2 kPa, Liquid, Vibrating tube method
[2] = xn = mol fraction of the nth substance listed; settings: 93.2 kPa, Liquid, Vibrating tube method, x1 = 1

Row | Structure (SMILES) | mass density ([1]; 293.15 K) | mass density ([1]; 298.15 K) | mass density ([1]; 303.15 K) | mass density ([1]; 308.15 K) | mass density ([2]; 293.15 K) | mass density ([2]; 298.15 K) | mass density ([2]; 303.15 K) | mass density ([2]; 308.15 K)
1 | CC(C)(C)N [2-methyl-2-propanamine] | 692.06 ± 2 kg/m3 | 686.65 ± 2 kg/m3 | 681.18 ± 2 kg/m3 | 675.66 ± 2 kg/m3 |  |  |  | 
2 | CC#N [acetonitrile] + CCCN |  |  |  |  | 782.01 ± 2 kg/m3 | 776.61 ± 2 kg/m3 | 771.2 ± 2 kg/m3 | 765.75 ± 2 kg/m3
3 | CC#N [acetonitrile] + CCCNCCC |  |  |  |  | 782.01 ± 2 kg/m3 | 776.61 ± 2 kg/m3 | 771.2 ± 2 kg/m3 | 765.75 ± 2 kg/m3
4 | CCCCNCCCC [dibutylamine] | 759.7 ± 2 kg/m3 | 755.61 ± 2 kg/m3 | 751.5 ± 2 kg/m3 | 747.38 ± 2 kg/m3 |  |  |  | 
5 | CCCNCCC [dipropylamine] | 738.18 ± 2 kg/m3 | 733.64 ± 2 kg/m3 | 729.07 ± 2 kg/m3 | 724.48 ± 2 kg/m3 |  |  |  | 
6 | CCCN [propan-1-amine] | 716.48 ± 2 kg/m3 | 711.21 ± 2 kg/m3 | 705.88 ± 2 kg/m3 | 700.62 ± 2 kg/m3 |  |  |  | 
7 | CCN(CC)CC [triethylamine] | 727.7 ± 2 kg/m3 | 723.02 ± 2 kg/m3 | 718.36 ± 2 kg/m3 | 713.65 ± 2 kg/m3 |  |  |  | 

Now from value to molecule:

Row | mass density ([1]; 293.15 K) | mass density ([1]; 298.15 K) | mass density ([1]; 303.15 K) | mass density ([1]; 308.15 K) | mass density ([2]; 293.15 K) | mass density ([2]; 298.15 K) | mass density ([2]; 303.15 K) | mass density ([2]; 308.15 K) | Structure (SMILES)
8 | 737.12 ± 2 kg/m3 | 732.33 ± 2 kg/m3 | 727.51 ± 2 kg/m3 | 722.66 ± 2 kg/m3 |  |  |  |  | CCCCN [1-butanamine]
9 | 782.01 ± 2 kg/m3 | 776.61 ± 2 kg/m3 | 771.2 ± 2 kg/m3 | 765.75 ± 2 kg/m3 |  |  |  |  | CC#N [acetonitrile]
10 |  |  |  |  | 782.01 ± 2 kg/m3 | 776.61 ± 2 kg/m3 | 771.2 ± 2 kg/m3 | 765.75 ± 2 kg/m3 | CC#N [acetonitrile] + CC(C)(C)N
11 |  |  |  |  | 782.01 ± 2 kg/m3 | 776.61 ± 2 kg/m3 | 771.2 ± 2 kg/m3 | 765.75 ± 2 kg/m3 | CC#N [acetonitrile] + CCCCN
12 |  |  |  |  | 782.01 ± 2 kg/m3 | 776.61 ± 2 kg/m3 | 771.2 ± 2 kg/m3 | 765.75 ± 2 kg/m3 | CC#N [acetonitrile] + CCCCNCCCC
13 |  |  |  |  | 782.01 ± 2 kg/m3 | 776.61 ± 2 kg/m3 | 771.2 ± 2 kg/m3 | 765.75 ± 2 kg/m3 | CC#N [acetonitrile] + CCN(CC)CC
